In assay [1] the test system is maize embryogenic cultures (A188xB73) transformed with pActRPL3. In kind it is cell-based.
For assay [2], the system named is leaf explants of pCAPRL3 plants. In kind it is cell-based.
The test system of assay [3] is protoplasts of the genotype Rpl3:c258 (C4 lines). In kind it is cell-based, Nicotiana tabacum.
Assay [4] has as its system protoplasts from wild-type tobacco plants. In kind it is cell-based, Nicotiana tabacum.
The subject of assay [5] is leaf explants of wild-type plants. Format: cell-based.
Assay [6] deals with maize embryogenic cultures (A188xB73) transformed with pActRPLC4. Format: cell-based.
Assay [7] has as its system leaf explants from pCARPLC4 plants. In kind it is cell-based.
For assay [8], the system named is cells of transgenic line expressing the rice Rpl3c:258 (N.dpCARPLC4). Format: cell-based, N. debneyi.
For assay [9], the system named is wheat anther-derived callus tissue. Particulars: cited from earlier work.
In assay [10] the test system is protoplasts from transgenic plants with the rice Rpl3 gene (C3 lines). Format: cell-based, Nicotiana tabacum.
The test system of assay [11] is cell suspensions of pCARPL3 plants (N.d.pCARPL3). In kind it is cell-based, N. debneyi.
The next assay concerns mature maize embryos. Particulars: cited from earlier work.
Assay [12] deals with wild type non-transformed N. debneyi cell suspension (N.d.wt). Format: cell-based.

We go through one molecule from patent publication US6855872B2 (priority 1997, dated 2005).

For the molecule `CC1=C[C@H]2O[C@@H]3[C@H](O)C[C@](C)([C@@]2(CO)[C@H](O)C1=O)[C@]31CO1` [DON, deoxynivalenol], the “callus growth, % of the control” value in assay [1] is given as 15%. Besides, the “formation of callus and shoots on leaf explants” value in assay [2] was “inhibiting the formation of callus and shoots”. In addition, in assay [3], the “micro colony formation from protoplasts” value is on record as “capable of transfer to regeneration medium” and the viability of protoplasts result is listed as “not significantly affected”. In assay [4], the “susceptibility of wild-type plants (protoplasts) to DON” value is listed as “susceptible”. Also, the “formation of callus and shoots on leaf explants” value in [5] was “inhibiting the formation of callus and shoots”. In assay [6], the “DON required to reduce growth to 15% of control values” came to 50 µg/mL; the “callus growth, % of the control” value worked out at 63%; the “increase in tolerance to DON by the RPLC4 callus” value stood at 10 fold. Besides, the “shoot regeneration on leaf explants” value in [7] is “capable of shoot regeneration”. Besides, in assay [8], the “impact on packed cell volume or cell fresh weight gain” value is “less serious impact” and the “weight gain of cells after 20 days in culture” value (“weight gain of cells” for short) was “not inhibited as much”. Besides, the “growth of wheat anther-derived callus tissue” value in assay [9] is recorded as “reduces growth”. The “micro colony formation from protoplasts” value in assay [10] is “did not often develop into calli”. Moreover, in assay [11], the “packed cell volume and fresh weight gain of cell suspensions” value is “sufficient to inhibit”; the “weight gain of cells” value is “inhibited”. For the same molecule, in the assay with mature maize embryos, the “DON concentration sufficient to significantly inhibit growth” value was 10 µg/mL. Further, in [12], the “weight gain of cells” value is on record as “inhibited”.
